experiment: RP, Waters ACQUITY Premier BEH C18, 100 × 2.1 mm, 1.7 µm, 40 °C, 0.3 to 0.4 mL/min, estimated dead time 0.73 min; A: water + 0.1% formic acid; B: acetonitrile + 0.1% formic acid; gradient (min/%B) 0/0.5 0.1/0.5 10/80 10.1/99.5 12/0.5 12.1/0.5 14.5/0.5; conditions: stereoisomer not certain

Structure (SMILES) | LC retention time [min]
CC(C)=CCNc1ncnc2nc[nH]c12 [N6-(DELTA2-ISOPENTENYL)-ADENINE] | 4.63
COc1cc(CC(=O)O)ccc1O [HOMOVANILLATE] | 4.66
O=C(O)CC(=O)O [MALONATE] | 1.21
CC1NC(=O)NC1CCCCCC(=O)O (stereo not given) [DETHIOBIOTIN] | 4.85
O=C(OC1Cc2c(O)cc(O)cc2OC1c1cc(O)c(O)c(O)c1)c1cc(O)c(O)c(O)c1 (single isomer, unassigned; (-)) [(-)-EPIGALLOCATECHIN-3-GALLATE] | 3.98
O=c1c(O)c(-c2ccccc2)oc2cc(O)cc(O)c12 [NORIZALPININ] | 7.12
C=C(CC(=O)O)C(=O)O [ITACONATE] | 3.67
O=C(O)C(O)CO (stereo not given) [GLYCERATE] | 0.911
CC(C=CC=C(C)C=CC1=C(C)C(=O)CCC1(C)C)=CC=CC=C(C)C=CC=C(C)C=CC1=C(C)C(=O)CCC1(C)C [CANTHAXANTHIN] | 11.3
O=C(O)c1ccc2ccccc2c1O [1-HYDROXY-2-NAPHTHOATE] | 7.32
CNCC(O)c1ccc(O)cc1 [D-SYNEPHRINE] | 0.927
O=C(O)C1CCCCN1 (stereo not given) [PIPECOLATE] | 1.33
CC(C)(CO)C(O)C(=O)NCCC(=O)O (stereo not given) [PANTOTHENATE] | 3.72
COc1cc(C(=O)O)cc(OC)c1O [SYRINGIC ACID] | 3.98
O=C(O)Cc1cnc[nH]1 [4-IMIDAZOLEACETATE] | 0.92
COc1cc(C=CC(=O)O)ccc1O [FERULATE] | 5.17
CSCCC(O)C(=O)O (stereo not given) [2-HYDROXY-4-(METHYLTHIO)BUTANOATE] | 4.06
CC12CCC3c4ccc(O)cc4CCC3C1CCC2O (stereo not drawn) [ESTRADIOL-17ALPHA] | 7.15
CCCC(=O)OC(CC(=O)[O-])C[N+](C)(C)C (stereo not given) [BUTYRYLCARNITINE] | 3.89
O=C(O)C(O)c1ccc(O)cc1 (stereo not given) [P-HYDROXYMANDELIC ACID] | 2.48
Nc1ncnc2c1ncn2C1OC(CSCCC(N)C(=O)O)C(O)C1O (stereo not given) [S-ADENOSYLHOMOCYSTEINE] | 3.08
CCCc1oc(CCC(=O)O)c(C(=O)O)c1C [3-CARBOXY-4-METHYL-5-PROPYL-2-FURANPROPIONIC ACID] | 6.56
NCCc1ccc(O)cc1 [TYRAMINE] | 2.81
Nc1c(O)cccc1C(=O)CC(N)C(=O)O (stereo not given) [HYDROXYKYNURENINE] | 2.07
O=C(O)c1ccccc1O [SALICYLATE] | 5.97
O=C(O)CC(C(=O)O)C(O)C(=O)O (stereo not given) [ISOCITRATE] | 1.16
CC(CCC(=O)NCCS(=O)(=O)O)C1CCC2C3C(O)CC4CC(O)CCC4(C)C3CC(O)C12C (stereo not given) [TAUROCHOLIC ACID] | 5.85
O=C(O)C1(O)CC(O)C(O)C(O)C1 (stereo not given) [QUINATE] | 0.92
O=C(CCc1ccc(O)cc1)c1c(O)cc(O)cc1OC1OC(CO)C(O)C(O)C1O (stereo not given) [PHLORIDZIN] | 5.01
O=C1c2c(O)cccc2C(C2OC(CO)C(O)C(O)C2O)c2cc(CO)cc(O)c21 (stereo not given) [ALOIN] | 5.1

Reference: the RepoRT retention time repository
